The source of these data is ChEMBL document CHEMBL1201862, “PubChem BioAssay data set” (2004).

Holding throughout (test): NCI anticancer screen, dose series, 48 h
Assay [1] deals with EKVX.
Assay [2] has as its system CCRF-CEM.
Assay [3] concerns A498.
Assay [4] concerns M14.
For assay [5], the system named is Hs-578T.
For assay [6], the system named is NCI-H522.
In assay [7] the test system is OVCAR-8.
The subject of assay [8] is NCI/ADR-RES.
Assay [9] deals with Malme-3M.
Assay [10] deals with MCF7.
The subject of assay [11] is U-251.
Assay [12] concerns COLO 205.
For assay [13], the system named is SK-MEL-2.
In assay [14] the test system is 786-0.
In assay [15] the test system is RXF 393.
Assay [16] concerns MOLT-4.
The subject of assay [17] is CAKI-1.
Assay [18] deals with SK-MEL-28.
The test system of assay [19] is NCI-H226.

Where “and” joins values, the source holds several entries; their conditions need not be identical. Equal values may be shown once.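 Results reflect a 48-hour exposure of cells in 96-well plates to compound at five concentrations. The concentration for 50% growth inhibition is given as GI50.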 Calls of active or inactive are those of the source. Cut-off read from the data, not from the text of the source: active = GI50 up to about 1.1 µM and inactive = higher.

With `O=[N+]([O-])c1ccc(Cc2nc3cc4ccccc4cc3[nH]2)cc1C(F)(F)F`, the GI50 in [1] was 25.8 µM (inactive); in assay [2] it was 24.3 µM (inactive); in assay [3] it was 17.7 µM (inactive); in assay [4], 12.4 µM (inactive); in assay [5], 11.6 µM (inactive); in [6], 20.4 µM (inactive). In addition, the GI50 in [7] was 19 µM (inactive); in assay [8], 11.4 µM (inactive); in assay [9] it was 9.79 µM (inactive); in [10], 15.5 µM (inactive); in [11] it was 14.8 µM (inactive); in assay [12], 4.32 µM (inactive). Besides, the GI50 in assay [13] is 20 µM (inactive); in assay [14], 12.7 µM (inactive); in assay [15], 13.2 µM (inactive); in [16] it was 13.1 µM (inactive); in assay [17], 11.6 µM (inactive); in assay [18], 24.2 µM (inactive).

On to `CCOC(=O)c1nc2cc(F)cc(F)c2[nH]c1=O`, for which the GI50 in [19], in [2], in assay [3], in assay [4], in assay [5] and in assay [7] was > 100 µM (inactive) throughout. The GI50 in assay [8], in assay [10], in assay [11], in assay [12], in assay [13] and in [14] was > 100 µM (inactive) in each case. The GI50 in assay [16], in [17] and in [18] was > 100 µM (inactive) each time.

On to `CSC1(CC(=O)N(C)C)C(=O)Nc2ccccc21` (stereo unspecified), for which the GI50 in [1], in [19], in [3], in assay [4], in [5] and in assay [8] was > 100 µM (inactive) each time. Further, the GI50 in assay [9], in assay [10], in assay [11], in assay [12], in [13] and in assay [14] was > 100 µM (inactive) each time. In addition, the GI50 in assay [16] and in assay [18] was > 100 µM (inactive) in each case.

As for `CC1NC(=O)C2Cc3ccc(O)c(c3)Oc3ccc(cc3)C(O)C(C(=O)N2C)N(C)C(=O)C(C)NC(=O)C(Cc2ccc(O)cc2)N(C)C(=O)C(C)NC1=O` (stereo unspecified), the GI50 in [1] was 57 µM (inactive); in assay [2], 9.71 µM (inactive); in assay [3], > 100 µM (inactive); in assay [4], 63.2 µM (inactive); in assay [5], 5.09 µM (inactive); in assay [6], 9.44 µM (inactive). Besides, the GI50 in [7] was 24.7 µM (inactive); in assay [8], > 100 µM (inactive); in [10], 13.7 µM (inactive); in assay [11] it was 9.48 µM (inactive); in [12], 79.6 µM (inactive); in [13], 8.41 µM (inactive). Besides, the GI50 in assay [14] is 38 µM (inactive); in [16], 19.4 µM (inactive); in assay [17] it was > 100 µM (inactive); in assay [18] it was 19.2 µM (inactive).

In the case of `CC1=NN(c2nc(N)nc(CC#N)n2)C(C)(C)C1`, the GI50 in assay [1], in assay [19], in [2], in assay [3], in [4] and in assay [5] was > 100 µM (inactive) in each case. Also, the GI50 in [7], in assay [8], in assay [10], in assay [11], in assay [12] and in [13] was > 100 µM (inactive) each time. Besides, the GI50 in assay [14], in assay [15], in assay [16], in assay [17] and in assay [18] was > 100 µM (inactive) each time.

For `CC(=O)Nc1ccc(C(=O)NN2C(=O)CSC2c2ccc(O)cc2)cc1` (stereo unspecified), the GI50 in assay [1], in [19], in assay [2], in assay [3], in [4] and in assay [5] was > 100 µM (inactive) in each case. Also, the GI50 in assay [7], in [8], in [10], in assay [11], in assay [12] and in [13] was > 100 µM (inactive) each time. Further, the GI50 in [14], in assay [15], in [16] and in assay [18] was > 100 µM (inactive) in each case.

Consider `CCCC1NC(C#N)(C#N)C(CCC)NC1(C#N)C#N` (stereo unspecified), for which the GI50 is 42.8 µM (inactive) in assay [1]; 22.1 µM (inactive) in [19]; < 0.01 µM (active) in assay [2]; 21.7 µM (inactive) in assay [3]; 0.126 µM (active) in assay [4]; 3.07 µM (inactive) in assay [5]. Also, the GI50 in [6] is < 0.0105 µM (active); in assay [7] it was 0.149 µM (active); in assay [8] it was 0.243 µM (active); in [9] it was 0.0297 µM (active); in assay [10], 0.0689 µM (active); in assay [11], 6.46 µM (inactive). The GI50 in assay [12] is < 0.01 µM (active); in [13], 52.1 µM (inactive); in [14] it was 0.0326 µM (active); in [16], < 0.0214 µM (active); in assay [17] it was 0.0573 µM (active); in assay [18], 44.9 µM (inactive).

On to `S=c1[nH]c2ccc(Br)cc2c(=S)s1`, for which the GI50 is 27.8 µM (inactive) in assay [1]; 28.7 µM (inactive) in assay [19]; 30.8 µM (inactive) in assay [2]; 30.5 µM (inactive) in assay [4]; 40.5 µM (inactive) in assay [5]; 25.1 µM (inactive) in assay [6]. In addition, the GI50 in assay [7] is 31.6 µM (inactive); in [8], 28.6 µM (inactive); in [9], 33.3 µM (inactive); in assay [10], 17.9 µM (inactive); in [11] it was 22.9 µM (inactive); in assay [12], 16.4 µM (inactive). Moreover, the GI50 is 20.6 µM (inactive) in assay [13]; 30.8 µM (inactive) in assay [14]; 27.6 µM (inactive) in assay [15]; 29.9 µM (inactive) in assay [16]; 21.8 µM (inactive) in assay [17]; 52.7 µM (inactive) in assay [18].

In the case of `CN(C)c1n/c(=N/Cc2ccccc2)ss1`, the GI50 was > 10 µM (inactive) in [1]; > 10 µM (inactive) in [19]; 0.646 µM (active) in assay [2]; > 10 µM (inactive) in assay [3]; > 10 µM (inactive) in [4]; > 10 µM (inactive) in [5]. Also, the GI50 was 2.61 µM (inactive) in assay [6]; > 10 µM (inactive) in assay [7]; > 10 µM (inactive) in assay [8]; > 10 µM (inactive) in assay [9]; > 10 µM (inactive) in [10]; > 10 µM (inactive) in assay [11]. For the same compound, the GI50 in assay [12] was > 10 µM (inactive); in assay [14], > 6.82 µM (inactive); in assay [15], > 10 µM (inactive); in assay [16] it was 1.81 µM (inactive); in [17], > 10 µM (inactive); in assay [18] it was > 10 µM (inactive).

Consider `CC(=O)OC1COC(n2c(N)c(C#N)c(-c3ccccc3)c(C#N)c2=S)C(OC(C)=O)C1OC(C)=O` (stereo unspecified), for which the GI50 in assay [1] is 31.9 µM (inactive) and 29.9 µM (inactive); in assay [2], 26.1 µM (inactive) and 35.2 µM (inactive); in [3], 24.8 µM (inactive) and 33.2 µM (inactive); in assay [4], 70.8 µM (inactive) and 64.1 µM (inactive); in assay [5], 45.3 µM (inactive) and 37.4 µM (inactive); in assay [6], 38.5 µM (inactive) and 40.8 µM (inactive). The GI50 in assay [7] is 31.6 µM (inactive) and 56.8 µM (inactive); in assay [8], > 100 µM (inactive) and 71.6 µM (inactive); in assay [9], 34.3 µM (inactive) and 33.4 µM (inactive); in [10], 34.4 µM (inactive) and 29.9 µM (inactive); in assay [11], 48.8 µM (inactive) and 53.1 µM (inactive); in [12], 31.6 µM (inactive) and 31.3 µM (inactive). Moreover, the GI50 in [13] is 20 µM (inactive) and 27.2 µM (inactive); in assay [14], 36.9 µM (inactive) and 39.3 µM (inactive); in assay [15], 34.4 µM (inactive) and 33 µM (inactive); in assay [16], 24.6 µM (inactive) and 24.3 µM (inactive); in assay [17] it was 39.4 µM (inactive) and 40.7 µM (inactive); in assay [18] it was 55.7 µM (inactive) and 36.6 µM (inactive).

Take `CN(NC(=O)c1cccs1)C1=NCCCCN1`: the GI50 in assay [1], in assay [19], in assay [2], in [3], in [4] and in assay [5] was > 100 µM (inactive) throughout. In addition, the GI50 in assay [6], in assay [7], in assay [8], in assay [9], in assay [10] and in assay [11] was > 100 µM (inactive) throughout. Moreover, the GI50 in [12], in assay [13], in assay [14], in [15], in assay [16] and in [18] was > 100 µM (inactive) throughout.
